Data from PMC12109561, “LPS2336, a New TREK-1 Channel Activator Identified by High Throughput Screening” (Biomolecules, 2025).
Like-named read-outs stand apart in the source and are kept apart here.

Tests used:
CD1 mice [1] = assay: Hargreaves test in carrageenan-induced paw inflammation; format: in vivo, mouse
hTREK-1 [2] = molecular target: T1, hTREK-1 (Homo sapiens, UniProt O95069)
T1 sequence (O95069 1-422 isoform O95069-3): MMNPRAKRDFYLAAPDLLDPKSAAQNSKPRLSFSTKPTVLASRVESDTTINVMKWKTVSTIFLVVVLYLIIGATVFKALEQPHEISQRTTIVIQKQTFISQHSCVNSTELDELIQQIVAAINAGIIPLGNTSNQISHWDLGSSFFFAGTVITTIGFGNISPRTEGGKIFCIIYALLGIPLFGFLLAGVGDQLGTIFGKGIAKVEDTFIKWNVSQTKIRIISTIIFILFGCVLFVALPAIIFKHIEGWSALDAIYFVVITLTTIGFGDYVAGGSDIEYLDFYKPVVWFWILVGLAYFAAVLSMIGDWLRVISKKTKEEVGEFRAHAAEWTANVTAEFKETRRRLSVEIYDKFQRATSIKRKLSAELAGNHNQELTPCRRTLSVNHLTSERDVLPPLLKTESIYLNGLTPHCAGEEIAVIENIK

hTREK-1 [3] = molecular target: T1, hTREK-1; assay: Whole cell patch clamp on HEK-hTREK-1 cells; format: cell-based; parameters: transfected with the human Kcnk2 (NM_001017424) or Kcnk10 (NM_021161) ORF cloned in a pEZ-M02 expression vector
naive HEK293 cells = assay: Thallium flux assay on naive (untransfected) HEK293 cells; conditions: 10 µM
Protocol: Cells were plated in 384-well plates with black walls and clear bottom coated with poly-D-lysine (Greiner Bio-One, Kremsmünster, Austria, #781946) at a density of 25 000 cells/well from a 1 250 000 cells/mL solution. Cell counting was performed with an automatic cell counter (Countness II FL, ThermoFisher, Waltham, MA, USA) with addition of trypan blue 0.2% to exclude dead cells. 24 h after plating, cells were incubated with FluxOR II green probe (ThermoFisher) for 1 h in the dark, accordingly to the supplier’s protocol (‘no wash’ procedure) with addition of 77 mg/mL probenecide. […] Fluorescence was measured every 3 s during 1 min (excitation 485 nm, emission 515 nm), and 0.5 mM thallium was added to the wells after a 20 s baseline. […] Fluorescence is normalized using the formula (F − F0)/F0 where F0 is the average fluorescence during the first 18 s of the recording. ΔFmax/F0 is calculated between 18 and 33 s (−2 to 13 s relative to thallium addition). For dose–response curves, ΔFmax/F0 are expressed as %vehicle (100% corresponding to the average ΔFmax/F0 measured in vehicle-treated wells). For high throughput screening, Z scores were calculated as(1) Z=Xsample−X¯neg/σneg where X represents ΔFmax/F0 and σ the ΔFmax/F0 standard deviation. ‘neg’ represents negative controls (vehicle-treated wells). […]

[4] = system: WT and TREK-1 KO littermates of C57Bl6/J background; assay: Horizontal bar test in WT and TREK-1 KO littermates; format: in vivo, mouse; conditions: i.p. 50 mg/kg, 15 min
Excerpt: (§1) TREK-1^−/− mice were generated by crossing mice carrying an allele of the Kcnk2 gene in which exon 3 was floxed (RRID:MGI:3050295) with ZP3-Cre mice (RRID:MGI:3835429), both in C57Bl6/J background. F1 females, producing TREK-1^+/− oocytes, were crossed with WT males. TREK-1^+/− F2 offspring not carrying the ZP3-Cre transgene were finally crossed together to generate TREK-1^−/− and TREK-1^+/+ littermates, which were weaned in separate cages after genotyping using 2 mm tail samples taken at 10 days of age. Animals were identified by digital tattoos at 3 weeks of age.
A 13 cm long, 2 mm diameter metal bar was placed horizontally between 2 rods at a 30 cm height. […] After gently releasing the tail, the time taken by mice to climb on the bar (grabbing it with their four paws) was monitored.
(§2) To search for possible adverse effects induced by LPS2336 in vivo, we submitted CD1 mice to different confounding tests aiming at characterizing motor coordination, balance, muscle strength and spontaneous locomotor activity. […] Finally, we monitored the body temperature of mice for 45 min after intraperitoneal injection of LPS2336 at 40 mg/kg and could observe hypothermia in both WT and TREK-1 KO (−2.4 and −2.6 °C, respectively) following LPS2336 treatment (Figure 7F,G).

CD1 mice [5] = assay: Open field test in CD1 mice; format: in vivo, mouse; conditions: i.p., 15 min before open field test
Protocol: (§3) Mice were placed in the center of a 50 × 50 cm arena with 45 cm high walls. Animals were filmed for 10 min and the distance traveled was measured using video-tracking software (Viewpoint Videotrack 5.13.0.10).
as §2, with “activity. […] To assess the contribution of TREK-1 to this adverse effect, we submitted TREK-1 knock-out mice (which are of the C57Bl6/J background) to the same test, 15 min following the injection of 50 mg/kg LPS2336. […] We finally submitted the mice to a third test consisting in observing their spontaneous locomotion in an open arena (open field test).” for “activity.”

[6] = system: WT and TREK-1 KO littermates of C57Bl6/J background; assay: Open field test in WT and TREK-1 KO littermates; format: in vivo, mouse; conditions: i.p. 50 mg/kg
Excerpt: as §1, §3, §2

[7] = system: WT and TREK-1 KO littermates of C57Bl6/J background; assay: Body temperature monitoring (rectal probe); format: in vivo, mouse; conditions: i.p. 40 mg/kg, 15 min after injection minus before
Excerpt: as §1
Body temperature was measured using a rectal probe in awake animals before and 15, 30 and 45 min after injection of LPS2336.
as §2, with “activity. […] To assess the contribution of TREK-1 to this adverse effect, we submitted TREK-1 knock-out mice (which are of the C57Bl6/J background) to the same test, 15 min following the injection of 50 mg/kg LPS2336.” for “activity.”

hTREK-1 [8] = molecular target: T1, hTREK-1; assay: cell-based
[9] = 50 µM, HEK-hTREK-1 cells, vs vehicle

CN1CC[C@]23c4c5ccc(O)c4O[C@H]2[C@@H](O)C=C[C@H]3[C@H]1C5 [morphine, reference compound]
analgesia after intracerebroventricular administration (CD1 mice [1]; intracerebroventricular, 1 µg (3.5 nmol)): analgesic
analgesia after intrathecal administration (CD1 mice [1]; intrathecal, 3 µg (10.5 nmol)): long-lasting analgesia

O=C(NCCCCN1CCN(Cc2ccccc2)CC1)c1ccc2ccccc2c1 [LPS6257]
change in ΔFmax/F0 compared to the vehicle condition (hTREK-1 [2]): −70%

CCOC(=O)CN1CCC(Cc2ccccc2)CC1 [2h]
TREK-1 activation by analogs (hTREK-1 [2]): severely impacted TREK-1 activation ability

CCCCN1CCC(Cc2ccccc2)CC1 [2g]
TREK-1 activation by analogs (hTREK-1 [2]): profound decrease in TREK-1 activation

CNCCC(Oc1ccc(C(F)(F)F)cc1)c1ccccc1 (centres unmarked) [fluoxetine, reference compound]
TREK-1 activation (ΔFmax/F0) (hTREK-1 [2]): 54 % of vehicle

c1ccc(CC2CCN(Cc3ccccc3)CC2)cc1 [2f]
TREK-1 activation by analogs (hTREK-1 [2]): profound decrease in TREK-1 activation

CS(=O)(=O)Nc1ccc(C(=O)NCc2ccc(Cl)cc2Cl)cc1 [ML335, reference compound]
increase in ΔFmax/F0 (hTREK-1 [2]): 2.60 fold
effect of salification on TREK-1 activation (hTREK-1 [2]; 100 µM): increased TREK-1 activation
EC50 (hTREK-1 [2]; read-out: EC50 (TREK-1 activation, thallium assay)): 6.7 µM
increase of mean current density recorded at 0 mV (hTREK-1 [3]; [9]): 13.35 fold

Cc1cc(Cl)ccc1OCCNC(=O)c1cccs1 [ML402, reference compound]
effect of salification on TREK-1 activation (hTREK-1 [2]; 100 µM): increased TREK-1 activation

N#CCN1CCCCC1 [2d]
TREK-1 activation by analogs (hTREK-1 [2]): loss of TREK-1 activation

N#CCCN1CCC(Cc2ccccc2)CC1 [2a]
TREK-1 activation by analogs (hTREK-1 [2]): profound decrease in TREK-1 activation

c1ccc(-c2nn[nH]n2)c(Nc2cccc3c2CCCC3)c1 [BL-1249, reference compound]
concentrations at which active on TREK-1 (hTREK-1 [2]): active at sub-micromolar concentrations
toxicity to HEK-hTREK-1 cells (hTREK-1 [2]; 100 µM): visible cell death
effect on fluorescence in naive cells (naive HEK293 cells): no effect

NCCN1CCC(Cc2ccccc2)CC1 [2j]
TREK-1 activation by analogs (hTREK-1 [2]): severely impacted TREK-1 activation ability

CC1CCN(CC#N)CC1 [2b]
TREK-1 activation by analogs (hTREK-1 [2]): loss of TREK-1 activation

N#CCN1CCC(Cc2ccccc2)CC1 [LPS2336]
dose able to reverse the pain phenotype (CD1 mice [1]; intracerebroventricular, effect similar to 1 µg morphine): 100 µg
dose at which the analgesic effect reaches a plateau (CD1 mice [1]; intraperitoneal): 20 mg/kg
time of peak analgesia after injection (CD1 mice [1]; intraperitoneal): 15 min
dose from which pain thresholds are increased (CD1 mice [1]; intraperitoneal, carrageenan-injected CD1 mice): ≥ 20 mg/kg
effect on pain thresholds at the highest intrathecal dose (CD1 mice [1]; intrathecal, 300 µg (1400 nmol)): slight, non-significant effect
pain relief after intrathecal administration (CD1 mice [1]; intrathecal, doses up to 300 µg): not effective
horizontal bar test, WT vs TREK-1 KO [4]: no difference between WT and TREK-1 KO mice
time to climb on horizontal bar in WT littermates ([4]; C57Bl6/J WT): same increase in time to climb
dose from which spontaneous locomotion is decreased (CD1 mice [5]): ≥ 30 mg/kg
open field test, WT vs TREK-1 KO [6]: no difference between WT and TREK-1 KO mice
spontaneous locomotion in C57Bl6/J mice [6]: same adverse effect as CD1 mice
change in body temperature (hypothermia), WT mice ([7]; C57Bl6/J WT): −2.4 °C
change in body temperature (hypothermia), TREK-1 KO mice ([7]; TREK-1 KO): −2.6 °C
average Z score in high throughput screening (hTREK-1 [2]): 3.50 ± 0.24
times over the positivity threshold (hTREK-1 [2]): 3/3
EC50 (hTREK-1 [8]): 11.8 µM
increase of mean current density recorded at 0 mV (hTREK-1 [3]): 10.77 fold

O=C(O)CN1CCC(Cc2ccccc2)CC1 [2i]
TREK-1 activation by analogs (hTREK-1 [2]): severely impacted TREK-1 activation ability

Nc1ccc(Oc2ccc(C(c3ccc(Oc4ccc(N)cc4)cc3)(C(F)(F)F)C(F)(F)F)cc2)cc1 [GI-530159]
increase of mean current density recorded at 0 mV (hTREK-1 [3]; [9]): 9.73 fold

CCC#CCN1CCC(Cc2ccccc2)CC1 [2c]
TREK-1 activation by analogs (hTREK-1 [2]): profound decrease in TREK-1 activation

NC(=O)CN1CCC(Cc2ccccc2)CC1 [2k]
TREK-1 activation by analogs (hTREK-1 [2]): severely impacted TREK-1 activation ability

N#CCCCN1CCC(Cc2ccccc2)CC1 [2e]
TREK-1 activation by analogs (hTREK-1 [2]): profound decrease in TREK-1 activation
